For test [1], the target named is T1, PRMT1 (Homo sapiens, UniProt Q99873). Nature of the test: IC50 and nH determination, PRMT1. Type of test: biochemical.
The next test has as its target T2, CARM1/PRMT4 (Homo sapiens, UniProt Q86X55).
T2 sequence (Q86X55 1-608): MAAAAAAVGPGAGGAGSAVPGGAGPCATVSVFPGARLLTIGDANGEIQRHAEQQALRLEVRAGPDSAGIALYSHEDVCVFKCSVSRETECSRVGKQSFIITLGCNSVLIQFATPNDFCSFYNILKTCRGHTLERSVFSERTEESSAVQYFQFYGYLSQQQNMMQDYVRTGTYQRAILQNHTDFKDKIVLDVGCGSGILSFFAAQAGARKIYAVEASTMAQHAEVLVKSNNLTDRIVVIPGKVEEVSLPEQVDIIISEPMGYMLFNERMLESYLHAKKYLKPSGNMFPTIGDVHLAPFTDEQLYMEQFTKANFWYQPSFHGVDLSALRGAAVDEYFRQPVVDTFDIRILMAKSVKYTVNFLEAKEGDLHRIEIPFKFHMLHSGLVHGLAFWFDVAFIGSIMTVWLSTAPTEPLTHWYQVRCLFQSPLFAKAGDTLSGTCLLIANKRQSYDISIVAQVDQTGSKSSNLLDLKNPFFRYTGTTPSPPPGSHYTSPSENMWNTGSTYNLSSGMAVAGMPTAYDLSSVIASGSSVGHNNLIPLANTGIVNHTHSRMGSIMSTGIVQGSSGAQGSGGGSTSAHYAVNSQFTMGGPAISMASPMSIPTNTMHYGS
Kind of test: IC50 and nH determination, CARM1. Type of test: biochemical. As to conditions: ratio of IC50 values.

A further test has as its target PRMT5 (Homo sapiens, UniProt O14744). Nature of the test: IC50 and nH determination, PRMT5. Type of test: biochemical. The settings on record: ratio of IC50 values.
The target in a further test is PRMT8 (Homo sapiens, UniProt Q9NR22). Nature of the test: IC50 and nH determination, PRMT8. The class given is biochemical. The settings on record: ratio of IC50 values.
PRMT8, sequence (Q9NR22 whole entry, species assumed): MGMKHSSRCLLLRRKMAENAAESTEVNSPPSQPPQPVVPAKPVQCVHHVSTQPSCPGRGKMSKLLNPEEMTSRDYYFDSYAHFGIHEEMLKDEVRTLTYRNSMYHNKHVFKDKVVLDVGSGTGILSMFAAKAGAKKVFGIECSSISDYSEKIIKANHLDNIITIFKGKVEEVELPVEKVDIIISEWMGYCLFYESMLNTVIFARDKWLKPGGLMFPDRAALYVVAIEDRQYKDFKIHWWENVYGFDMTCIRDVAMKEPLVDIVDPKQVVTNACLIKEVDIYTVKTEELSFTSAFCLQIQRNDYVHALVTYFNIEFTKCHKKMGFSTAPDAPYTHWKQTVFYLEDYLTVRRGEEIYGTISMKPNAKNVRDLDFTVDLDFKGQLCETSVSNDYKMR
Another test addresses His6x-PRMT1 (Homo sapiens, UniProt Q99873). Nature of the test: Single-dose inhibition study with PRMT1 enzyme. The settings on record: compound at 10 μM, N.I. = no inhibition. Type of test: biochemical.
In test [2] the target is T1, PRMT1. Nature of the test: Fluorescence titration of compound 50 by PRMT1. The settings on record: excitation 620 nm. Type of test: binding.
The subject of a further test is Meg01 cells. Nature of the test: Cell viability assay. The class given is cell-based.
In the next test the test system is MOLM13 cells. Kind of test: Cell viability assay. The class given is cell-based.
Another test has as its system HEL cells. Kind of test: Cell viability assay. The class given is cell-based.
The subject of test [3] is total protein arginine methylation in Meg01, MOLM13, and HEL cells. Kind of test: Western blot of total protein arginine methylation in treated leukemia cells. As to conditions: 24 h of treatment; anti-methyl-R antibodies. Type of test: cell-based.

T1 sequence (Q99873 1-353 isoform Q99873-3): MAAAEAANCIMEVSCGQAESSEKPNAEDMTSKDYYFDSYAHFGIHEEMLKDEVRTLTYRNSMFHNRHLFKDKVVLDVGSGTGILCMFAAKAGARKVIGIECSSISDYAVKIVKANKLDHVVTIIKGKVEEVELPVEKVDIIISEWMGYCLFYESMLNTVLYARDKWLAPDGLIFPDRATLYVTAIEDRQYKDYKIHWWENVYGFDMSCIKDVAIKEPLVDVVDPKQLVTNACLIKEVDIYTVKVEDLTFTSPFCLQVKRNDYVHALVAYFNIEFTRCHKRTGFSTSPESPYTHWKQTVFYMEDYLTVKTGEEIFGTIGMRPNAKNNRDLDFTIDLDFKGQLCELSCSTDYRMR
His6x-PRMT1, sequence (Q99873 1-353 isoform Q99873-3): as above
PRMT5, sequence (O14744 whole entry, species assumed): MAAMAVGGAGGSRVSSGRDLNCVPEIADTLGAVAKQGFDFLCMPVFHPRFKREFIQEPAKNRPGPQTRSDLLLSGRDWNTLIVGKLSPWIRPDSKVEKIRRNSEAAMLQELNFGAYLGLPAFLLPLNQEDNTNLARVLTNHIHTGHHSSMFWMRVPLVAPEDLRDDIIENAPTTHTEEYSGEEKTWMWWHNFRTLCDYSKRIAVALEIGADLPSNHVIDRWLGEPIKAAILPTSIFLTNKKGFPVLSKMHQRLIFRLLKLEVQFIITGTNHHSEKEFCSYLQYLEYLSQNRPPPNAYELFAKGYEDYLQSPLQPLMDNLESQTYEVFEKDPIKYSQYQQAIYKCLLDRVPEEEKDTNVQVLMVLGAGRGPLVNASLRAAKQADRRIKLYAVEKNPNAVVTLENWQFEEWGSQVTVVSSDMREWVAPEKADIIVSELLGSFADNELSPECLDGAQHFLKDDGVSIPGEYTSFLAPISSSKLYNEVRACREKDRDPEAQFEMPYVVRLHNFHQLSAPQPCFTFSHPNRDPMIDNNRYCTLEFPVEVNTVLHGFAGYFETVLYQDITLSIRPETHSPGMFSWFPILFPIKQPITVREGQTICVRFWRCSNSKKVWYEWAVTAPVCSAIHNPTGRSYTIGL
PRMT5, sequence (Q9BQA1 whole entry partner, species assumed): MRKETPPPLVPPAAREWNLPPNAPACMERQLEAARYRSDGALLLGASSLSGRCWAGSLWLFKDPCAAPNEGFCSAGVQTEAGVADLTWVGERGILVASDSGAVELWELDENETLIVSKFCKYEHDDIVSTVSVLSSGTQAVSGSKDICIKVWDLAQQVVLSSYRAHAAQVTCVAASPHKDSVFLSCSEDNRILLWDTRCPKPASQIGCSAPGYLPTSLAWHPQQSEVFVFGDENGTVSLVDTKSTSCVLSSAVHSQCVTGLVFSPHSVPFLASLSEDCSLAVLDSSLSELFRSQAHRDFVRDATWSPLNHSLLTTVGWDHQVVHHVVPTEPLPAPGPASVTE

With `CC1(C)C(/C=C/C=C2/N(CCCc3ccccc3)c3ccc(Cl)cc3C2(C)C)=[N+](CCCc2ccccc2)c2ccc(Cl)cc21.[Br-]` [Compound 24, 5-Chloro-2-((E)-3-((E)-5-chloro-3,3-dimethyl-1-(3-phenylpropyl)indolin-2-ylidene)prop-1-en-1-yl)-3,3-dimethyl-1-(3-phenylpropyl)-3H-indol-1-ium Bromide], at PRMT1 [1] (overall statement), the “selectivity for PRMT1 over other PRMTs (CARM1, PRMT5, and PRMT8)” value is recorded as “no selectivity”.
`C(/C=C/c1sc2c3ccccc3ccc2[n+]1CCCc1ccccc1)=C1/Sc2c(ccc3ccccc23)N1CCCc1ccccc1.[I-]` [Compound 47, 3-(3-Phenylpropyl)-2-((1E,3Z)-3-(3-(3-phenylpropyl)naphtho[2,1-d]thiazol-2(3H)-ylidene)prop-1-en-1-yl)naphtho[2,1-d]thiazol-3-ium Iodide]: the “selectivity for PRMT1 over CARM1” value on CARM1/PRMT4 is on record as “about 2 fold”. Besides, the “selectivity for PRMT1 over PRMT5” value at PRMT5 is “about 2 fold”. Further, the “selectivity for PRMT1 over PRMT8” value at PRMT8 was “more than 9 fold”.
Turning to `CCN1/C(=C/C(C)=C/c2sc3c4ccccc4ccc3[n+]2CC)Sc2c1ccc1ccccc21` [Compound 48, 3-Ethyl-2-((1E,3Z)-3-(3-ethylnaphtho[2,1-d]thiazol-2(3H)-ylidene)-2-methylprop-1-en-1-yl)naphtho[2,1-d]thiazol-3-ium Iodide], the inhibition (in general, the drop in the measured response relative to a control, in per cent) at 10 µM on His6x-PRMT1 (read-out: Inhibition (10 μM), PRMT1) turned out to be 90%.
`CCCCN1/C(=C/C=C(Br)/C=C/C2=[N+](CCCC)c3ccc(Br)cc3C2(C)C)C(C)(C)c2cc(Br)ccc21.[I-]` [Compound 50, 5-Bromo-2-((1E,3Z)-3-bromo-5-((E)-5-bromo-1-butyl-3,3-dimethylindolin-2-ylidene)penta-1,3-dien-1-yl)-1-butyl-3,3-dimethyl-3H-indol-1-ium Iodide]: on PRMT1 [2], the “fluorescence intensity increase upon binding to PRMT1” value is “about 6 fold”. In addition, the “concentration that significantly inhibited leukemia cell growth” value in the test on Meg01 cells came out at 100 nM; with MOLM13 cells it was 100 nM; with HEL cells, 200 nM. Besides, the “total protein arginine methylation level” value in test [3] is “significant loss of total protein arginine methylation”.
Regarding `CCCCN1/C(=C/C=C/C2=[N+](CCCC)c3ccccc3C2(C)C)C(C)(C)c2ccccc21.[I-]` [Compound E-6], the “Inhibition (10 μM)” value on His6x-PRMT1 (PRMT1, 10 µM) is given as “no inhibition”.
For `CC1(C)C(/C=C/C=C2/N(CCCc3ccccc3)c3ccc4ccccc4c3C2(C)C)=[N+](CCCc2ccccc2)c2ccc3ccccc3c21.[Br-]` [Compound E-8], at PRMT1 [1] (IC50 0.61 μM vs 3.05 μM), the “fold more potent on PRMT1 than naphthothiazolium counterpart 47” value is “about 5 fold”.
